Test system: WM3248 melanoma cells, 486 antibodies
Assay: Reverse phase protein arrays (RPPA);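 on RPPA ACC1.R.C: ratio of treated to vehicle (0 µM) normalized linear protein signal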;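 on RPPA AMPK.a2 pS345.R.V: ratio of treated to vehicle (0 µM) normalized linear protein signal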;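 on RPPA AMPKa pT172.R.C: ratio of treated to vehicle (0 µM) normalized linear protein signal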;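 on RPPA ASNS.R.V: ratio of treated to vehicle (0 µM) normalized linear protein signal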;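 on RPPA AceCS1.R.V: ratio of treated to vehicle (0 µM) normalized linear protein signal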;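 on RPPA Akt1.R.V: ratio of treated to vehicle (0 µM) normalized linear protein signal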;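 on RPPA Atg5.R.C: ratio of treated to vehicle (0 µM) normalized linear protein signal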;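 on RPPA Bim.R.V: ratio of treated to vehicle (0 µM) normalized linear protein signal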
Format: cell-based, Human
Conditions: 5 uM
Source text: Pellets were snap frozen in liquid nitrogen and shipped to MD Anderson Cancer Center core RPPA facility for RPPA analysis (Table S5). Three biological replicates for each sample were generated.
Nomenclatures on the RPPA heatmaps: name_of_antibody.species_of_antibody.status_of_antibody. V - antibody validated; C - validation of antibody in progress; Q - antibody nonspecific; E – under evaluation; antibodies raised in M - mouse, G - goat, R - rabbit, or T - rat.

## CN(C)c1cccc(Nc2cc(-c3ccccc3)nc(C3CCNCC3)n2)c1 [ARN22089, N1,N1-dimethyl-N3-(6-phenyl-2-(piperidin-4-yl)pyrimidin-4-yl)benzene-1,3-diamine]
  RPPA MYH11.R.C Average: 0.914
  RPPA Myosin.IIa.R.C Average: 0.843
  RPPA Myosin.IIa_pS1943.R.V Average: 0.844
  RPPA Myt1.R.C Average: 1.051
  RPPA N.Cadherin.R.V Average: 1.019
  RPPA N.Ras.M.V Average: 1.035
  RPPA NAPSIN.A.R.C Average: 1.080
  RPPA NDRG1_pT346.R.V Average: 0.957
  RPPA NDUFB4.R.V Average: 0.959
  RPPA NRF2.R.C Average: 1.058
  RPPA Notch1.R.V Average: 0.994
  RPPA Notch1.cleaved.R.V Average: 0.989
  RPPA P.Cadherin.R.C Average: 1.050
  RPPA PAI.1.M.V Average: 0.977
  RPPA PAICS.R.C Average: 0.899
  RPPA PAK1.R.V Average: 1.006
  RPPA PAK4.R.V Average: 0.986
  RPPA PAK_pT423_T402.R.C Average: 0.921
  RPPA PAR.R.C Average: 1.327
  RPPA PARG.R.C Average: 1.012
  RPPA PARP.R.V Average: 1.023
  RPPA PAX6.R.V Average: 1.030
  RPPA PAX8.R.C Average: 0.962
  RPPA PCNA.M.C Average: 0.948
  RPPA PD.1.R.V Average: 0.992
  RPPA PD.L1.R.C Average: 1.064
  RPPA PDH.M.V Average: 1.049
  RPPA PDHA1.R.V Average: 1.079
  RPPA PDHK1.R.C Average: 1.057
  RPPA PDK1_pS241.R.V Average: 1.138
  RPPA PEA.15.R.V Average: 0.904
  RPPA PEA.15_pS116.R.V Average: 1.018
  RPPA PERK.R.V Average: 0.925
  RPPA PGM1.R.V Average: 0.979
  RPPA PHGDH.R.C Average: 1.081
  RPPA PHLPP.R.V Average: 0.922
  RPPA PI3K.p85.R.C Average: 0.987
  RPPA PI3K.p110.a.R.C Average: 1.057
  RPPA PI3K.p110.b.M.C Average: 0.980
  RPPA PKA.a.R.V Average: 1.013
  RPPA PKC.a.b.II_pT638_T641.R.V Average: 0.925
  RPPA PKC.b.II_pS660.R.V Average: 1.162
  RPPA PKCa.R.V Average: 1.462
  RPPA PKM2.R.C Average: 0.954
  RPPA PLC.gamma1.R.V Average: 0.970
  RPPA PLC.gamma1_pS1248.R.V Average: 1.060
  RPPA PLC.gamma2_pY759.R.V Average: 0.976
  RPPA PLK1.R.C Average: 0.920
  RPPA PMS2.R.V Average: 0.940
  RPPA PR.R.V Average: 1.032
  RPPA PRAS40.M.C Average: 0.991
  RPPA PRAS40_pT246.R.V Average: 1.028
  RPPA PRC1_pT481.R.C Average: 0.944
  RPPA Paxillin.R.C Average: 0.977
  RPPA Pdcd4.R.C Average: 1.156
  RPPA Porin.M.V Average: 0.936
  RPPA p21.R.C Average: 1.048
  RPPA p27.Kip1.R.C Average: 0.948
  RPPA p27_pT157.R.C Average: 0.943
  RPPA p27_pT198.R.V Average: 1.103
  RPPA p38.MAPK.R.V Average: 1.062
  RPPA p38.MAPK._pT180_Y182.R.V Average: 1.580
  RPPA p38.a.M.V Average: 0.984
  RPPA p44.42.MAPK.R.V Average: 0.980
  RPPA p53.R.C Average: 1.052
  RPPA p70.S6K1.R.V Average: 0.998
  RPPA p70.S6K_pT389.R.V Average: 1.143
  RPPA p90RSK_pT573.R.C Average: 0.930
5W1
  RPPA A.Raf.R.V: 1.057
  RPPA A.Raf_pS299.R.C: 0.952
  RPPA ACC1.R.C: 1.201
  RPPA ACC_pS79.R.V: 1.224
  RPPA ACLY_pS455.R.V: 1.273
  RPPA ACSL1.R.V: 0.847
  RPPA ACVRL1.R.C: 0.930
  RPPA ADAR1.M.V: 0.910
  RPPA ALKBH5.R.V: 0.866
  RPPA AMPK.a2_pS345.R.V: 1.146
  RPPA AMPKa.R.C: 1.108
  RPPA AMPKa_pT172.R.C: 2.494
  RPPA AR.R.V: 1.056
  RPPA ARID1A.R.C: 0.880
  RPPA ASNS.R.V: 0.847
  RPPA ATM.R.V: 1.285
  RPPA ATM_pS1981.R.V: 0.930
  RPPA ATP5A.M.C: 0.983
  RPPA ATP5H.R.V: 0.890
  RPPA ATR.R.V: 0.910
  RPPA ATRX.R.C: 1.060
  RPPA ATR_pS428.R.C: 1.111
  RPPA AceCS1.R.V: 0.974
  RPPA Akt1.R.V: 1.150
  RPPA Akt1_pS473.R.V: 1.251
  RPPA Akt2.R.V: 1.156
  RPPA Akt2_pS474.R.C: 1.400
  RPPA Akt.R.V: 1.121
  RPPA Akt_pS473.R.V: 1.390
  RPPA Akt_pT308.R.V: 1.046
  RPPA Ambra1_pS52.R.C: 0.943
  RPPA Annexin.VII.M.V: 0.883
  RPPA Atg4B.R.C: 1.033
  RPPA Atg5.R.C: 1.001
  RPPA Atg7.R.V: 0.986
  RPPA Aurora.A.R.C: 0.575
  RPPA Aurora.ABC_pT288_pT232_pT198.R.C: 0.881
  RPPA Aurora.B.R.V: 0.940
  RPPA Axl.R.V: 1.329
  RPPA B7.H3.R.C: 0.986
  RPPA B7.H4.R.C: 1.110
  RPPA B.Raf.R.C: 1.153
  RPPA BAP1.M.V: 0.943
  RPPA BCL2A1.R.V: 1.060
  RPPA BMK1.Erk5_pT218_Y220.R.V: 0.857
  RPPA BRCA1.M.C: 0.962
  RPPA BRD4.R.V: 0.959
  RPPA Bad_pS112.R.V: 1.171
  RPPA Bak.R.C: 1.077
  RPPA Bax.R.V: 0.955
  RPPA Bcl2.R.C: 0.855
  RPPA Beclin.R.C: 0.863
  RPPA BiP.GRP78.M.C: 0.936
  RPPA Bim.R.V: 1.056
  RPPA X4E.BP1.R.V: 1.448
  RPPA X4E.BP1_pS65.R.V: 0.917
  RPPA X14.3.3.zeta.R.V: 0.934
  RPPA X14.3.3βR.V: 0.934
  RPPA X53BP1.R.V: 1.104
  RPPA b.Actin.R.C: 0.885
  RPPA b.Catenin.R.V: 0.881
  RPPA b.Catenin_pT41_S45.R.V: 1.099
  RPPA c.Abl.R.V: 1.227
  RPPA c.Abl_pY412.R.C: 1.133
  RPPA c.IAP2.R.C: 0.965
5W3
  RPPA A.Raf.R.V: 1.155
  RPPA A.Raf_pS299.R.C: 1.022
  RPPA ACC1.R.C: 0.834
  RPPA ACC_pS79.R.V: 0.685
  RPPA ACLY_pS455.R.V: 0.716
  RPPA ACSL1.R.V: 0.628
  RPPA ACVRL1.R.C: 0.953
  RPPA ADAR1.M.V: 1.141
  RPPA ALKBH5.R.V: 0.830
  RPPA AMPK.a2_pS345.R.V: 1.116
  RPPA AMPKa.R.C: 1.027
  RPPA AMPKa_pT172.R.C: 0.821
  RPPA AR.R.V: 1.102
  RPPA ARID1A.R.C: 1.193
  RPPA ASNS.R.V: 1.291
  RPPA ATM.R.V: 1.157
  RPPA ATM_pS1981.R.V: 0.939
  RPPA ATP5A.M.C: 0.233
  RPPA ATP5H.R.V: 0.791
  RPPA ATR.R.V: 0.960
  RPPA ATRX.R.C: 1.213
  RPPA ATR_pS428.R.C: 1.112
  RPPA AceCS1.R.V: 0.718
  RPPA Akt1.R.V: 0.726
  RPPA Akt1_pS473.R.V: 0.998
  RPPA Akt2.R.V: 0.876
  RPPA Akt2_pS474.R.C: 1.140
  RPPA Akt.R.V: 0.848
  RPPA Akt_pS473.R.V: 1.107
